BigSolDB 2.1

NC(=O)c1ncn([C@@H]2O[C@H](CO)[C@@H](O)[C@H]2O)n1
solubility (mole fraction) (in DMSO, 293.15 K): 0.0532 | solubility (mole fraction) (in DMSO, 298.15 K): 0.0659 | solubility (mole fraction) (in DMSO, 303.15 K): 0.075 | solubility (mole fraction) (in DMSO, 308.15 K): 0.0821 | solubility (mole fraction) (in DMSO, 313.15 K): 0.095 | solubility (mole fraction) (in DMSO, 318.15 K): 0.11 | solubility (mole fraction) (in DMSO, 323.15 K): 0.125 | solubility (mole fraction) (in acetone, 283.15 K): 3.77e-05 | solubility (mole fraction) (in acetone, 288.15 K): 4.45e-05 | solubility (mole fraction) (in acetone, 293.15 K): 5.43e-05 | solubility (mole fraction) (in acetone, 298.15 K): 6.36e-05 | solubility (mole fraction) (in acetone, 303.15 K): 7.87e-05 | solubility (mole fraction) (in acetone, 308.15 K): 9.41e-05 | solubility (mole fraction) (in acetone, 313.15 K): 0.000114 | solubility (mole fraction) (in acetone, 318.15 K): 0.000139 | solubility (mole fraction) (in acetone, 323.15 K): 0.000153 | solubility (mole fraction) (in ethanol, 283.15 K): 5.95e-05 | solubility (mole fraction) (in ethanol, 288.15 K): 8.55e-05 | solubility (mole fraction) (in ethanol, 293.15 K): 0.000117 | solubility (mole fraction) (in ethanol, 298.15 K): 0.000158 | solubility (mole fraction) (in ethanol, 303.15 K): 0.000209 | solubility (mole fraction) (in ethanol, 308.15 K): 0.000282 | solubility (mole fraction) (in ethanol, 313.15 K): 0.000339 | solubility (mole fraction) (in ethanol, 318.15 K): 0.000435 | solubility (mole fraction) (in ethanol, 323.15 K): 0.000552 | solubility (mole fraction) (in formic acid, 283.15 K): 0.0483 | solubility (mole fraction) (in formic acid, 288.15 K): 0.0533 | solubility (mole fraction) (in formic acid, 293.15 K): 0.0644 | solubility (mole fraction) (in formic acid, 298.15 K): 0.0785 | solubility (mole fraction) (in formic acid, 303.15 K): 0.091 | solubility (mole fraction) (in formic acid, 308.15 K): 0.104 | solubility (mole fraction) (in formic acid, 313.15 K): 0.114 | solubility (mole fraction) (in formic acid, 318.15 K): 0.131 | solubility (mole fraction) (in formic acid, 323.15 K): 0.159 | solubility (mole fraction) (in methanol, 283.15 K): 0.000576 | solubility (mole fraction) (in methanol, 288.15 K): 0.000665 | solubility (mole fraction) (in methanol, 293.15 K): 0.000743 | solubility (mole fraction) (in methanol, 298.15 K): 0.000865 | solubility (mole fraction) (in methanol, 303.15 K): 0.00103 | solubility (mole fraction) (in methanol, 308.15 K): 0.00122 | solubility (mole fraction) (in methanol, 313.15 K): 0.00138 | solubility (mole fraction) (in methanol, 318.15 K): 0.00169 | solubility (mole fraction) (in methanol, 323.15 K): 0.00194 | solubility (mole fraction) (in n-butanol, 283.15 K): 7.44e-05 | solubility (mole fraction) (in n-butanol, 288.15 K): 8.95e-05 | solubility (mole fraction) (in n-butanol, 293.15 K): 0.000117 | solubility (mole fraction) (in n-butanol, 298.15 K): 0.000149 | solubility (mole fraction) (in n-butanol, 303.15 K): 0.000175 | solubility (mole fraction) (in n-butanol, 308.15 K): 0.00021 | solubility (mole fraction) (in n-butanol, 313.15 K): 0.000246 | solubility (mole fraction) (in n-butanol, 318.15 K): 0.000288 | solubility (mole fraction) (in n-butanol, 323.15 K): 0.000362 | solubility (mole fraction) (in n-propanol, 283.15 K): 4.57e-05 | solubility (mole fraction) (in n-propanol, 288.15 K): 5.73e-05 | solubility (mole fraction) (in n-propanol, 293.15 K): 7.99e-05 | solubility (mole fraction) (in n-propanol, 298.15 K): 0.000102 | solubility (mole fraction) (in n-propanol, 303.15 K): 0.000131 | solubility (mole fraction) (in n-propanol, 308.15 K): 0.000161 | solubility (mole fraction) (in n-propanol, 313.15 K): 0.000194 | solubility (mole fraction) (in n-propanol, 318.15 K): 0.000235 | solubility (mole fraction) (in n-propanol, 323.15 K): 0.000295 | solubility (mole fraction) (in sec-butanol, 283.15 K): 7.85e-05 | solubility (mole fraction) (in sec-butanol, 288.15 K): 8.47e-05 | solubility (mole fraction) (in sec-butanol, 293.15 K): 9.62e-05 | solubility (mole fraction) (in sec-butanol, 298.15 K): 0.000104 | solubility (mole fraction) (in sec-butanol, 303.15 K): 0.000122 | solubility (mole fraction) (in sec-butanol, 308.15 K): 0.000135 | solubility (mole fraction) (in sec-butanol, 313.15 K): 0.000161 | solubility (mole fraction) (in sec-butanol, 318.15 K): 0.000196 | solubility (mole fraction) (in sec-butanol, 323.15 K): 0.000224 | solubility (mole fraction) (in water, 283.15 K): 0.00879 | solubility (mole fraction) (in water, 288.15 K): 0.0104 | solubility (mole fraction) (in water, 293.15 K): 0.0123 | solubility (mole fraction) (in water, 298.15 K): 0.0144 | solubility (mole fraction) (in water, 303.15 K): 0.0165 | solubility (mole fraction) (in water, 308.15 K): 0.019 | solubility (mole fraction) (in water, 313.15 K): 0.0225 | solubility (mole fraction) (in water, 318.15 K): 0.0269 | solubility (mole fraction) (in water, 323.15 K): 0.0305
